Earlier results in patent US11532831B1, “Redox-active compounds and uses thereof” (Palo Alto Research Center Incorporated, priority 2021, dated 2022).

Tests used:
[1] = cited from earlier work
[2] = on platinum (footnote); cited from earlier work

Substance | Solubility at pH 7 [1] | Kinetic rate constant [2] [cm/s]
iron(II) (Fe^2+)/iron(III) (Fe^3+) [Fe^2+/Fe^3+] | insoluble | –
bis(trimethylammoniopropyl)ferrocene [BTMAP-Fc] | 1.9M | –
ethylenediaminetetraacetatoferrate(2-) (Fe(II)-EDTA)/ethylenediaminetetraacetatoferrate(1-) (Fe(III)-EDTA) [Fe(EDTA)] | – | 0.026
